Several values for one entry are separate records, joined by “and”; a condition that tells them apart may be missing. Identical values can stand only once. Like-named read-outs stand apart in the source and are kept apart here.
Assays:
HSA [1] = target: T1, HSA (Homo sapiens, UniProt P02768); settings: ref [43]; cited from earlier work
T1 construct: purchased Sigma-Aldrich

HSA [2] = target: T1, HSA; test: UV titration (Benesi–Hildebrand) with HSA; assay type: binding; settings: n = 3, 1 μM HSA, pH 7.4 phosphate buffer, 24 °C, 278 nm, read-out: logKHSA ± Stdev. (logarithm of stability constant) (converted)
Experimental: (§1) The UV-Vis absorption assay is a straightforward and relatively simple method to examine the interactions between small molecules and macromolecules. Changes in the structure of the protein caused by the interacting ligand can lead to alterations in the absorption spectrum. […] Fixed wavelength measurements were conducted at the absorption maxima of AGP and HSA. […] The change in the absorbance and wavelength maximum in the UV spectra during the titration refers to the complex formation between proteins and PPIs. The Benesi–Hildebrand method was used to determine the stability constants based on Equation (7).
(§2) The absorption spectra were recorded on a Jasco V-750 spectrophotometer (Jasco, Tokyo, Japan) at 24 °C using 1.0 cm path-length quartz cuvettes. Then, 1 μM HSA and AGP were dissolved in a sodium phosphate buffer solution (pH 7.4; 0.1 M) and their concentration was kept constant. The PPIs were dissolved in DMSO, and further diluted with the AGP or HSA solution. Next, 1000 μL of 1 μM HSA and AGP solutions was titrated with the PPI stock solution in 1 μL steps. The concentration of the PPIs was set to 4.00, 7.98, 11.96, 15.94, 19.90, 23.86, 27.81, and 31.75 μM. The binding constants were determined using the Benesi–Hildebrand equation:(7) A0/A−A0=εPPI/εAPPI−εPPI+εPPI/εAPPI−εPPI×1/K×[C] where A0 is the absorbance of the HSA or AGP at 278 nm, A is the absorbance of the formed complex also at 278 nm, εPPI is the extinction coefficient of the actual PPI, εAPPI is the extinction coefficient of the albumin or AGP and PPI complex, K is the binding coefficient, and [C] is the concentration of the investigated PPI. The plot of A0/A − A0 versus C^−1 has a slope of K^−1. All experiments were performed in triplicate.

HSA [3] = target: T1, HSA; settings: ref [41]; cited from earlier work
[4] = target: human serum albumin (HSA) (Homo sapiens, UniProt P02768); test: Bound percentage by HPLC on HSA column, extrapolation to zero organic modifier; assay type: in vitro ADME; settings: for Bound percentage (b%), average: average of IPA, EtOH, MeOH
human serum albumin (HSA), sequence (P02768 25-609): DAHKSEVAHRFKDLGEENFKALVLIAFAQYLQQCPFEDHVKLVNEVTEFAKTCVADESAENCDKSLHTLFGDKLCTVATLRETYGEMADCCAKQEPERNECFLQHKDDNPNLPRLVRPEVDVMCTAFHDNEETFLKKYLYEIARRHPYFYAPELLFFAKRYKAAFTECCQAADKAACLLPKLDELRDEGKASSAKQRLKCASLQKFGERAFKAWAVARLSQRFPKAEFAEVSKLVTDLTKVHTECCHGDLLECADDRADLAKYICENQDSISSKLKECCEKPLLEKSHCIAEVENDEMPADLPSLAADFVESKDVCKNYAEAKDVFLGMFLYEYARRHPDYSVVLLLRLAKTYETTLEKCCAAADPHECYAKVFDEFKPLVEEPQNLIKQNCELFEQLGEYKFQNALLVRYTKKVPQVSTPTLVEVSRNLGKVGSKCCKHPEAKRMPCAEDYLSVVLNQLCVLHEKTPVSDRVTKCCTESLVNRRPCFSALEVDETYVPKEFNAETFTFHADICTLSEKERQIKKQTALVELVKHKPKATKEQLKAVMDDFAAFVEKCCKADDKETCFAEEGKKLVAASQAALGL
Experimental: (§3) Chromatographic columns containing proteins can be used to determine the percentage of drug binding. A plot of the natural logarithm of the retention factors against the proportion of organic modifiers was created. […] The intercept of these linear equations can be used to calculate the bound percentage according to Equation (4) (see in Section 3.2).
(§4) Chromatographic measurements were carried out on two separate HPLC systems. The AGP binding study was performed on a Waters 2695e chromatographic system paired with a Waters 2996 PDA detector, controlled by Empower 3 FR5 (Waters Corp., Milford, MA, USA), while the HSA binding study was performed on an Agilent 1100 HPLC system, consisting of an inline degasser (G1322A), a quaternary pump (G1311A), an automatic injector (G1329A) paired with sample thermostat (G1330A), a column thermostat (G1316A), and a diode array detector (G1315A) with Agilent Chemstation B04.03-SP2 software (Agilent, Bronnwald, Germany). For the binding studies, two protein-based chiral stationary phases were utilized. The chromatographic binding study for AGP was conducted on a ChromTech Chiral-AGP column (150 mm × 4.0 mm; ChromTech Ltd., Congleton, UK), while the binding study for HSA was performed on a Daicel Chiralpak HSA column (50 mm × 4.0 mm; Daicel Corp., Osaka, Japan). The detection wavelength was 210 nm for all measurements. The stock solutions of PPIs were prepared at a concentration of 1 mg/mL in MeOH. Subsequent dilutions were prepared using water. The injected samples were mixed and diluted from the stock solutions. The final concentration for the eutomer was 0.2 mg/mL, and for the distomer, it was 0.1 mg/mL. A volume of 2 μL was injected. To mitigate the instability of PPIs in aqueous solutions, the samples were kept at a temperature of 4 °C. Cooling the samples to 4 °C prevented significant decomposition for a period of 24 h. After 24 h, new samples were prepared for injection. Chromatographic parameters were calculated based on the following equations. The retention factor (k) was calculated as:(1) k=(tr−t0)/t0 where tr is the retention time of the investigated analyte, and t0 is the dead time, determined as the first peak appearance in the chromatogram. Resolution was calculated based on the following equation:(2) Rs=2(t2−t1)/(w1+w2) where t2 and t1 are the retention times of the second and first eluted enantiomers, respectively, while w is the peak width. The separation factor (α) was calculated as follows:(3) α=k2/k1 where k1 and k2 are the retention factors of the first- and second-eluting enantiomers, respectively. The k values were also used to calculate the protein-bound percentage (b%) using Equation (4):(4) b%=k/1+k×100

AGP = test: UV titration (Benesi–Hildebrand) with AGP; assay type: binding, human; settings: n = 3, 1 μM AGP, pH 7.4 phosphate buffer, 24 °C, 278 nm; for Kd: human, pH 7.4, UV titration, read-out: logKAGP ± Stdev (logarithm of stability constant) (converted)
Experimental: as §1, §2

BSA = settings: racemic, ref [39]; cited from earlier work
[5] = tested on: α1-acid glycoprotein (AGP); test: Bound percentage by HPLC on AGP column, extrapolation to zero organic modifier; assay type: in vitro ADME, human; settings: for Bound percentage (b%), average: average of IPA, EtOH, MeOH
Experimental: as §3
as §4, with “Cooling the samples to 4 °C prevented significant decomposition for a period of 24 h.” left out

[6] = extrapolation to zero percent EtOH
[7] = extrapolation to zero percent IPA
[8] = extrapolation to zero percent MeOH

T1 sequence (P02768 25-609): as above

COc1ccc2nc([S@@+]([O-])Cc3ncc(C)c(OC)c3C)[nH]c2c1 [S-omeprazole, esomeprazole]
logK (HSA [1]): 3.73 | Kd (HSA [2]): 95.5 µM | logK (HSA [3]): 4.70 | Bound percentage (b%), average [4]: 91.76% and 91.76 ± 1.08% | Bound percentage (b%) [4, 6]: 92.97% | Bound percentage (b%) [4, 7]: 91.15% | Bound percentage (b%) [4, 8]: 91.03% | Kd (AGP): 33.9 µM

COc1ccnc(C[S+]([O-])c2nc3cc(-n4cccc4)ccc3[nH]2)c1C (centres unmarked) [Ilaprazole]
logK (BSA): 5.63

COCCCOc1ccnc(C[S@+]([O-])c2nc3ccccc3[nH]2)c1C [S-rabeprazole]
Kd (HSA [2]): 38 µM | Bound percentage (b%), average [4]: 88.84% and 88.84 ± 0.59% | Bound percentage (b%) [4, 6]: 88.85% | Bound percentage (b%) [4, 7]: 88.24% | Bound percentage (b%) [4, 8]: 89.42% | Kd (AGP): 17.4 µM | Bound percentage (b%), average [5]: 97.98% and 97.98 ± 1.51% | Bound percentage (b%) [5, 6]: 98.17% | Bound percentage (b%) [5, 7]: 99.39% | Bound percentage (b%) [5, 8]: 96.39%

COCCCOc1ccnc(C[S@@+]([O-])c2nc3ccccc3[nH]2)c1C [R-rabeprazole, dexrabeprazole]
Kd (HSA [2]): 46.8 µM | Bound percentage (b%), average [4]: 88.84% and 88.84 ± 0.59% | Bound percentage (b%) [4, 6]: 88.85% | Bound percentage (b%) [4, 7]: 88.24% | Bound percentage (b%) [4, 8]: 89.42% | logKAGP ± Stdev (logarithm of stability constant) (AGP; UV titration): 4.59 ± 0.03 | Kd (AGP): 31.6 µM | Bound percentage (b%), average [5]: 96.78% and 96.78 ± 1.77% | Bound percentage (b%) [5, 6]: 96.69% | Bound percentage (b%) [5, 7]: 98.60% | Bound percentage (b%) [5, 8]: 95.07%

COc1ccnc(C[S+]([O-])c2nc3ccc(OC(F)F)cc3[nH]2)c1OC (centres unmarked) [Pantoprazole]
logK (BSA): 5.04

COc1ccc2[nH]c([S@+]([O-])Cc3ncc(C)c(OC)c3C)nc2c1 [R-omeprazole]
logK (HSA [1]): 3.50 | Kd (HSA [2]): 33.9 µM | Bound percentage (b%), average [4]: 91.76% and 91.76 ± 1.08% | Bound percentage (b%) [4, 6]: 92.97% | Bound percentage (b%) [4, 7]: 91.15% | Bound percentage (b%) [4, 8]: 91.03% | Kd (AGP): 20.4 µM

Reference: article PMC11477000, “Enantioselective Binding of Proton Pump Inhibitors to Alpha1-Acid Glycoprotein and Human Serum Albumin—A Chromatographic, Spectroscopic, and In Silico Study” (International Journal of Molecular Sciences, 2024)
